{"source": "patent US20120010557A1", "about": "“Drug Delivery System for Use in the Treatment of Vascular and Vessel-Related Pathologies” (priority 2009, published 2012)", "key": {"[1]": {"conditions": "not told; cited from earlier work"}, "[2]": {"test_system": "laser-induced thrombus in hamster dorsal skin fold venules", "assay": "Laser-induced thrombosis in hamster dorsal skin fold venules, intravital fluorescence microscopy", "format": "in vivo", "conditions": "infused", "source_text": "In the research that led to the invention it was shown that, in PWS vascular analogues (hamster dorsal skin fold venules), the photothermal response is ensued by a hemodynamic response, namely the initiation of primary and secondary hemostasis following laser-induced endovascular damage. There is increasing evidence that misfolded proteins and corollary fibrillar structures referred to as amyloid have the propensity to activate platelets (Herczenik E et al. Arterioscler Thromb Vasc Biol. 2007 July; 27(7):1657-65) and the contact activation pathway (Maas C et al. J Clin Invest. 2008 September; 118(9):3208-18). Inasmuch as thermal coagula are comprised of thermally denatured (i.e., misfolded) proteins, these laser-induced lesions may constitute the basis for the initiation of primary and secondary hemostasis in addition to a thermally afflicted endothelium. […]\nFIG. 1: Aggregation of 5,6-carboxyfluorescein (CF)-labeled platelets at the site of laser-induced damage in hamster dorsal skin fold venules as visualized by intravital fluorescence microscopy without (A-F) and with (G-L) priorly infused heparin (Hep). […]"}}}
{"molecule": "CC=CC=CC(=O)OCCCCCCCCCC(=O)OC[C@H](COP(=O)([O-])OCC[N+](C)(C)C)OC(=O)CCCCCCCCCOC(=O)C=CC=CC", "note": "[bis-SorbPC, 1,2-bis[10-(2′,4′-hexadienoloxy)decanonyl]-sn-glycero-3-phosphocholine]", "values": [{"measurement": "Increase in bilayer permeability", "setting": "[1]", "result": "up to 28.000 fold"}]}
{"molecule": "heparin", "values": [{"measurement": "Effect on laser-induced thrombus formation / lesional size", "setting": "[2]", "result": "impeding effect on the lesional size"}]}
